This is an account of results in PubChem BioAssay AID1259407 (Chemical Carcinogenesis Research Information System (CCRIS), 2018).

The data set concerns CCRIS mutagenicity, Ames/micronucleus/aberration tests. The experiment in a line: CCRIS mutagenicity studies.
The mark [1] stands for this setting: Test System: AMES SALMONELLA TYPHIMURIUM, Strain/Indicator: TA98, Metabolic Activation: NONE, Method: PREINCUBATION
Where [2] appears, read: Test System: AMES SALMONELLA TYPHIMURIUM, Strain/Indicator: TA98, Metabolic Activation: NONE, Method: STANDARD PLATE.
Where [3] appears, read: Test System: AMES SALMONELLA TYPHIMURIUM, Strain/Indicator: TA100, Metabolic Activation: NONE, Method: PREINCUBATION
The mark [4] stands for this setting: Test System: AMES SALMONELLA TYPHIMURIUM, Strain/Indicator: TA100, Metabolic Activation: NONE, Method: STANDARD PLATE.

Active and inactive are the calls of the source. The rule behind the calls is not given here.

As to `CC[C@]1(O)C[C@@H]2CN(CCc3c([nH]c4ccccc34)[C@@](C(=O)OC)(c3cc4c(cc3OC)N(C)[C@H]3[C@@](O)(C(=O)OC)[C@H](OC(C)=O)[C@]5(CC)C=CCN6CC[C@]43[C@@H]65)C2)C1`, the mutagenic call is “active; positive (ploidy changes)” (End Point: IN VITRO CHROMOSOMAL ABERRATIONS, Test System: CHL/IU CELLS, Metabolic Activation: NONE); “active; positive” (End Point: IN VITRO MICRONUCLEUS, Test System: CHL/IU CELLS, Metabolic Activation: NONE); “active; positive” (End Point: IN VITRO MICRONUCLEUS, Test System: CHO CELLS, Metabolic Activation: RAT, LIVER, S-9, AROCLOR 1254); “active; positive” (End Point: IN VITRO MICRONUCLEUS, Test System: HAMSTER V79 CELLS, Metabolic Activation: NONE); “micronuclei elevated in elderly donors” (End Point: IN VITRO MICRONUCLEUS, Test System: HUMAN PERIPHERAL BLOOD LYMPHOCYTES (FEMALES, AGE LESS THAN 30 AND AGE GREATER THAN 50 YR), Metabolic Activation: NONE); “active; positive” (End Point: IN VITRO MICRONUCLEUS, Test System: V79 CELLS, Metabolic Activation: NONE). For the same molecule, the mutagenic call reads like this: (End Point: IN VIVO CHROMOSOMAL ABERRATIONS, Test System: BONE MARROW CELLS, Species: MOUSE, Strain/Sex: SWISS/MALE, FEMALE, Route: IP) “active; positive”; (End Point: IN VIVO MICRONUCLEUS, Test System: POLYCHROMATIC ERYTHROCYTES, Species: MOUSE, Strain/Sex: ALBINO SWISS/MALE, Route: IP) “active; positive”; (End Point: IN VIVO MICRONUCLEUS, Test System: POLYCHROMATIC ERYTHROCYTES, Species: MOUSE, Strain/Sex: SWISS/MALE, FEMALE, Route: IP) “active; positive”; under setting [1], “inactive; negative”; under setting [2], “inactive; negative”; (Test System: AMES SALMONELLA TYPHIMURIUM, Strain/Indicator: TA98, Metabolic Activation: S-9, Method: PREINCUBATION) “inactive; negative”. For the same molecule, the mutagenic call reads like this: (Test System: AMES SALMONELLA TYPHIMURIUM, Strain/Indicator: TA98, Metabolic Activation: S-9, Method: STANDARD PLATE) “inactive; negative”; under setting [3], “inactive; negative”; under setting [4], “inactive; negative”; (Test System: AMES SALMONELLA TYPHIMURIUM, Strain/Indicator: TA100, Metabolic Activation: S-9, Method: PREINCUBATION) “inactive; negative”; (Test System: AMES SALMONELLA TYPHIMURIUM, Strain/Indicator: TA100, Metabolic Activation: S-9, Method: STANDARD PLATE) “inactive; negative”; (Test System: AMES SALMONELLA TYPHIMURIUM, Strain/Indicator: TA1537, Metabolic Activation: S-9, Method: STANDARD PLATE) “inactive; negative”. Besides, the mutagenic call was “inactive; negative” (Test System: E. COLI, Strain/Indicator: WP2 (HCR), Metabolic Activation: NONE, Method: STANDARD PLATE); “inactive; negative” (Test System: E. COLI, Strain/Indicator: WP2 (HCR), Metabolic Activation: S-9, Method: STANDARD PLATE); “active; positive” (Test System: MOUSE LYMPHOMA, Strain/Indicator: L5178Y(TK+/TK-), Metabolic Activation: NONE, Method: MICROWELL).
Consider `BrCc1ccc2c(c1)-c1cccc3cccc-2c13`, for which the mutagenic call under setting [2] is “active; positive” and the mutagenic call under setting [4] is “active; positive”.
`C=C(C)C(=O)OCC(CC)(COC(=O)C(=C)C)COC(=O)C(=C)C`: the mutagenic call was “inactive; negative” (Test System: AMES SALMONELLA TYPHIMURIUM, Strain/Indicator: TA98, Metabolic Activation: HAMSTER, LIVER, S-9, AROCLOR 1254, Method: STANDARD PLATE); “inactive; negative” under setting [2]; “inactive; negative” (Test System: AMES SALMONELLA TYPHIMURIUM, Strain/Indicator: TA98, Metabolic Activation: RAT, LIVER, S-9, AROCLOR 1254, Method: STANDARD PLATE); “inactive; negative” (Test System: AMES SALMONELLA TYPHIMURIUM, Strain/Indicator: TA100, Metabolic Activation: HAMSTER, LIVER, S-9, AROCLOR 1254, Method: STANDARD PLATE); “inactive; negative” under setting [4]; “inactive; negative” (Test System: AMES SALMONELLA TYPHIMURIUM, Strain/Indicator: TA100, Metabolic Activation: RAT, LIVER, S-9, AROCLOR 1254, Method: STANDARD PLATE). For the same molecule, the mutagenic call reads like this: (Test System: AMES SALMONELLA TYPHIMURIUM, Strain/Indicator: TA1535, Metabolic Activation: HAMSTER, LIVER, S-9, AROCLOR 1254 (5-10%), Method: STANDARD PLATE) “inactive; negative”; (Test System: AMES SALMONELLA TYPHIMURIUM, Strain/Indicator: TA1535, Metabolic Activation: HAMSTER, LIVER, S-9, AROCLOR 1254 (15-20%), Method: STANDARD PLATE) “active; positive”; (Test System: AMES SALMONELLA TYPHIMURIUM, Strain/Indicator: TA1535, Metabolic Activation: HAMSTER, LIVER, S-9, AROCLOR 1254, Method: STANDARD PLATE) “active; positive”; (Test System: AMES SALMONELLA TYPHIMURIUM, Strain/Indicator: TA1535, Metabolic Activation: NONE, Method: STANDARD PLATE) “inactive; negative”; (Test System: AMES SALMONELLA TYPHIMURIUM, Strain/Indicator: TA1535, Metabolic Activation: RAT, LIVER, S-9, AROCLOR 1254, Method: STANDARD PLATE) “inactive; negative”; (Test System: AMES SALMONELLA TYPHIMURIUM, Strain/Indicator: TA1537, Metabolic Activation: HAMSTER, LIVER, S-9, AROCLOR 1254, Method: STANDARD PLATE) “inactive; negative”. Besides, the mutagenic call reads like this: (Test System: AMES SALMONELLA TYPHIMURIUM, Strain/Indicator: TA1537, Metabolic Activation: NONE, Method: STANDARD PLATE) “inactive; negative”; (Test System: AMES SALMONELLA TYPHIMURIUM, Strain/Indicator: TA1537, Metabolic Activation: RAT, LIVER, S-9, AROCLOR 1254, Method: STANDARD PLATE) “inactive; negative”.
`CCNCCN`: the mutagenic call runs as follows: under setting [1], “inactive; negative”; (Test System: AMES SALMONELLA TYPHIMURIUM, Strain/Indicator: TA98, Metabolic Activation: RAT LIVER S-9, PHENOBARBITAL AND BETA-NAPHTHOFLAVONE, Method: PREINCUBATION) “inactive; negative”; under setting [3], “inactive; negative”; (Test System: AMES SALMONELLA TYPHIMURIUM, Strain/Indicator: TA100, Metabolic Activation: RAT LIVER S-9, PHENOBARBITAL AND BETA-NAPHTHOFLAVONE, Method: PREINCUBATION) “inactive; negative”; (Test System: AMES SALMONELLA TYPHIMURIUM, Strain/Indicator: TA1535, Metabolic Activation: NONE, Method: PREINCUBATION) “inactive; negative”; (Test System: AMES SALMONELLA TYPHIMURIUM, Strain/Indicator: TA1535, Metabolic Activation: RAT LIVER S-9, PHENOBARBITAL AND BETA-NAPHTHOFLAVONE, Method: PREINCUBATION) “inactive; negative”. In addition, the mutagenic call (Test System: AMES SALMONELLA TYPHIMURIUM, Strain/Indicator: TA1537, Metabolic Activation: NONE, Method: PREINCUBATION) is “inactive; negative”; the mutagenic call (Test System: AMES SALMONELLA TYPHIMURIUM, Strain/Indicator: TA1537, Metabolic Activation: RAT LIVER S-9, PHENOBARBITAL AND BETA-NAPHTHOFLAVONE, Method: PREINCUBATION) is “inactive; negative”; the mutagenic call (Test System: AMES SALMONELLA TYPHIMURIUM, Strain/Indicator: TA1538, Metabolic Activation: NONE, Method: PREINCUBATION) is “inactive; negative”; the mutagenic call (Test System: AMES SALMONELLA TYPHIMURIUM, Strain/Indicator: TA1538, Metabolic Activation: RAT LIVER S-9, PHENOBARBITAL AND BETA-NAPHTHOFLAVONE, Method: PREINCUBATION) was “inactive; negative”; the mutagenic call (Test System: E.COLI, Strain/Indicator: WP2UVRA, Metabolic Activation: NONE, Method: PREINCUBATION) was “inactive; negative”; the mutagenic call (Test System: E.COLI, Strain/Indicator: WP2UVRA, Metabolic Activation: RAT LIVER S-9, PHENOBARBITAL AND BETA-NAPHTHOFLAVONE, Method: PREINCUBATION) is “inactive; negative”.
